Reference: ChEMBL document CHEMBL1201862, “PubChem BioAssay data set” (2004)
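Test compounds were applied to cells in 96-well plates for 48 hours at 5 doses. GI50 marks 50% less growth.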 Calls of active or inactive are those of the source. No stated cut-off is given here; in the data, active = GI50 up to about 1.1 µM and inactive = higher.

Key:
Test in all cases: NCI-60 cell line screen, 48 h
A498 = test system: A498
A549 = test system: A549
CCRF-CEM = test system: CCRF-CEM
DMS-114 = test system: DMS-114
DMS-273 = test system: DMS-273
EKVX = test system: EKVX
HCT-116 = test system: HCT-116
HL-60 = test system: HL-60
HOP-62 = test system: HOP-62
HOP-92 = test system: HOP-92
HT-29 = test system: HT-29
IGROV-1 = test system: IGROV-1
KM12 = test system: KM12
M14 = test system: M14
M19-MEL = test system: M19-MEL
MOLT-4 = test system: MOLT-4
NCI-H226 = test system: NCI-H226
NCI-H23 = test system: NCI-H23
NCI-H460 = test system: NCI-H460
NCI-H522 = test system: NCI-H522
OVCAR-5 = test system: OVCAR-5
OVCAR-8 = test system: OVCAR-8
RXF 393 = test system: RXF 393
SF-268 = test system: SF-268
SK-MEL-28 = test system: SK-MEL-28
SK-OV-3 = test system: SK-OV-3
SNB-19 = test system: SNB-19
SNB-78 = test system: SNB-78
SR = test system: SR
TK-10 = test system: TK-10
U-251 = test system: U-251
UACC-257 = test system: UACC-257
UACC-62 = test system: UACC-62
UO-31 = test system: UO-31
786-0 = test system: 786-0
ACHN = test system: ACHN
BT-549 = test system: BT-549
CAKI-1 = test system: CAKI-1
COLO 205 = test system: COLO 205
DU-145 = test system: DU-145
HCC 2998 = test system: HCC 2998
HCT-15 = test system: HCT-15
Hs-578T = test system: Hs-578T
K562 = test system: K562
LOX IMVI = test system: LOX IMVI
MCF7 = test system: MCF7
MDA-MB-231 = test system: MDA-MB-231
MDA-MB-435 = test system: MDA-MB-435
MDA-N = test system: MDA-N
Malme-3M = test system: Malme-3M
NCI/ADR-RES = test system: NCI/ADR-RES
OVCAR-3 = test system: OVCAR-3
OVCAR-4 = test system: OVCAR-4
PC-3 = test system: PC-3
RPMI-8226 = test system: RPMI-8226
SF-295 = test system: SF-295
SF-539 = test system: SF-539
SK-MEL-2 = test system: SK-MEL-2
SK-MEL-5 = test system: SK-MEL-5
SN12C = test system: SN12C
SNB-75 = test system: SNB-75
SW-620 = test system: SW-620
T47D = test system: T47D
DLD-1 = test system: DLD-1
KM-20L2 = test system: KM-20L2
LXFL 529 = test system: LXFL 529
XF498 = test system: XF498

## COc1ccc(OC)c2c(=O)c3ccccc3[nH]c12
A498
  GI50: 69.3 µM (inactive)
A549
  GI50: 47 µM (inactive)
CCRF-CEM
  GI50: > 100 µM (inactive)
DMS-114
  GI50: 66.8 µM (inactive)
DMS-273
  GI50: 62.5 µM (inactive)
EKVX
  GI50: > 100 µM (inactive)
HCT-116
  GI50: 44.2 µM (inactive)
HL-60
  GI50: 48.3 µM (inactive)
HOP-62
  GI50: > 100 µM (inactive)
HOP-92
  GI50: 37.1 µM (inactive)
HT-29
  GI50: 45.6 µM (inactive)
IGROV-1
  GI50: > 100 µM (inactive)
KM12
  GI50: 57.8 µM (inactive)
M14
  GI50: 74.8 µM (inactive)
M19-MEL
  GI50: > 100 µM (inactive)
MOLT-4
  GI50: 47.9 µM (inactive)
NCI-H226
  GI50: 66.5 µM (inactive)
NCI-H23
  GI50: 41.7 µM (inactive)
NCI-H460
  GI50: 38.9 µM (inactive)
NCI-H522
  GI50: 82.8 µM (inactive)
OVCAR-5
  GI50: 70.1 µM (inactive)
OVCAR-8
  GI50: 19.3 µM (inactive)
RXF 393
  GI50: 41.2 µM (inactive)
SF-268
  GI50: 54.3 µM (inactive)
SK-MEL-28
  GI50: > 100 µM (inactive)
SK-OV-3
  GI50: > 100 µM (inactive)
SNB-19
  GI50: 96.6 µM (inactive)
SNB-78
  GI50: 49.7 µM (inactive)
SR
  GI50: 41.1 µM (inactive)
TK-10
  GI50: > 100 µM (inactive)
U-251
  GI50: 54.1 µM (inactive)
UACC-257
  GI50: 4.44 µM (inactive)
UACC-62
  GI50: 43.6 µM (inactive)
UO-31
  GI50: 30.9 µM (inactive)

## CCC(C)N1CN(c2ccccc2)C2(CCN(CCCC3(c4ccc(F)cc4)OCCO3)CC2)C1=O (centres undefined)
786-0
  GI50: 5.53 µM (inactive)
A498
  GI50: 22.2 µM (inactive)
A549
  GI50: 7.73 µM (inactive)
ACHN
  GI50: 6.61 µM (inactive)
BT-549
  GI50: 2 µM (inactive)
CAKI-1
  GI50: > 52 µM (inactive)
CCRF-CEM
  GI50: 3.6 µM (inactive)
COLO 205
  GI50: 3.75 µM (inactive)
DU-145
  GI50: 17.6 µM (inactive)
EKVX
  GI50: 6.14 µM (inactive)
HCC 2998
  GI50: 12.9 µM (inactive)
HCT-116
  GI50: 11.9 µM (inactive)
HCT-15
  GI50: 4.75 µM
HL-60
  GI50: 6.47 µM (inactive)
HOP-62
  GI50: 13.2 µM (inactive)
HOP-92
  GI50: < 0.01 µM (active)
HT-29
  GI50: 2.87 µM (inactive)
Hs-578T
  GI50: 6.15 µM (inactive)
IGROV-1
  GI50: 16.5 µM (inactive)
K562
  GI50: 8.24 µM (inactive)
KM12
  GI50: 20.6 µM (inactive)
LOX IMVI
  GI50: 7.73 µM (inactive)
M14
  GI50: 5.97 µM (inactive)
MCF7
  GI50: 3.3 µM (inactive)
MDA-MB-231
  GI50: 13.4 µM (inactive)
MDA-MB-435
  GI50: 18.8 µM (inactive)
MDA-N
  GI50: 7.14 µM (inactive)
MOLT-4
  GI50: 2.61 µM (inactive)
Malme-3M
  GI50: 5.19 µM (inactive)
NCI-H226
  GI50: 16.7 µM (inactive)
NCI-H23
  GI50: 3.34 µM (inactive)
NCI-H460
  GI50: 14.8 µM (inactive)
NCI-H522
  GI50: 5.11 µM (inactive)
NCI/ADR-RES
  GI50: 13.3 µM (inactive)
OVCAR-3
  GI50: 14.7 µM (inactive)
OVCAR-4
  GI50: 22.6 µM (inactive)
OVCAR-5
  GI50: 8.61 µM (inactive)
OVCAR-8
  GI50: 7.64 µM (inactive)
PC-3
  GI50: 6.05 µM (inactive)
RPMI-8226
  GI50: 1.89 µM (inactive)
RXF 393
  GI50: 13 µM (inactive)
SF-268
  GI50: 17.7 µM (inactive)
SF-295
  GI50: 5.57 µM (inactive)
SF-539
  GI50: 5.5 µM (inactive)
SK-MEL-28
  GI50: 17.6 µM (inactive)
SK-MEL-2
  GI50: 11.9 µM (inactive)
SK-MEL-5
  GI50: 3.88 µM (inactive)
SK-OV-3
  GI50: 21 µM (inactive)
SN12C
  GI50: 7.24 µM (inactive)
SNB-19
  GI50: 12.4 µM (inactive)
SNB-75
  GI50: 6.05 µM (inactive)
SR
  GI50: 6.34 µM (inactive)
SW-620
  GI50: 11.6 µM (inactive)
T47D
  GI50: 8.28 µM (inactive)
TK-10
  GI50: 7.5 µM (inactive)
U-251
  GI50: 5.86 µM (inactive)
UACC-257
  GI50: 1.98 µM (inactive)
UACC-62
  GI50: 23.3 µM (inactive)
UO-31
  GI50: 5.09 µM (inactive)

## COc1ccc2nc3ccccc3c(NCCCCCCN(C)CCCl)c2c1
786-0
  GI50: 0.177 µM (active)
A498
  GI50: 1.16 µM (inactive)
A549
  GI50: 0.297 µM (active)
ACHN
  GI50: 0.239 µM (active)
CAKI-1
  GI50: 0.314 µM (active)
CCRF-CEM
  GI50: 0.0368 µM (active)
COLO 205
  GI50: 0.265 µM (active)
DLD-1
  GI50: 0.164 µM (active)
DMS-114
  GI50: 0.166 µM (active)
DMS-273
  GI50: 0.0488 µM (active)
EKVX
  GI50: 1.39 µM (inactive)
HCC 2998
  GI50: 0.705 µM (active)
HCT-116
  GI50: 0.0887 µM (active)
HCT-15
  GI50: 0.221 µM
HL-60
  GI50: 0.0312 µM (active)
HOP-62
  GI50: 1.05 µM (active)
HOP-92
  GI50: 0.158 µM (active)
HT-29
  GI50: 0.122 µM (active)
IGROV-1
  GI50: 0.163 µM (active)
K562
  GI50: 0.0582 µM (active)
KM-20L2
  GI50: 0.172 µM (active)
KM12
  GI50: 0.27 µM (active)
LOX IMVI
  GI50: 0.162 µM (active)
LXFL 529
  GI50: 0.262 µM (active)
M14
  GI50: 0.834 µM (active)
M19-MEL
  GI50: 0.308 µM (active)
MOLT-4
  GI50: < 0.01 µM (active)
Malme-3M
  GI50: 0.82 µM (active)
NCI-H226
  GI50: 0.104 µM (active)
NCI-H23
  GI50: 0.175 µM (active)
NCI-H460
  GI50: 0.0569 µM (active)
NCI-H522
  GI50: 0.242 µM (active)
OVCAR-3
  GI50: 1.19 µM (inactive)
OVCAR-4
  GI50: 1.09 µM (active)
OVCAR-5
  GI50: 1.11 µM (active)
OVCAR-8
  GI50: 0.296 µM (active)
RPMI-8226
  GI50: 0.0728 µM (active)
RXF 393
  GI50: 0.367 µM (active)
SF-268
  GI50: 0.133 µM (active)
SF-295
  GI50: 1 µM (active)
SF-539
  GI50: 0.474 µM (active)
SK-MEL-28
  GI50: 0.986 µM (active)
SK-MEL-2
  GI50: 0.293 µM (active)
SK-MEL-5
  GI50: 0.918 µM (active)
SK-OV-3
  GI50: 0.664 µM (active)
SN12C
  GI50: 0.0689 µM (active)
SNB-19
  GI50: 1.17 µM (inactive)
SNB-75
  GI50: 0.703 µM (active)
SNB-78
  GI50: 0.33 µM (active)
SW-620
  GI50: 0.0583 µM (active)
TK-10
  GI50: 1.32 µM (inactive)
U-251
  GI50: 0.286 µM (active)
UACC-257
  GI50: 1.41 µM (inactive)
UACC-62
  GI50: 0.307 µM (active)
UO-31
  GI50: 1.36 µM (inactive)
XF498
  GI50: 0.2 µM (active)
